Measured values from patent US11512111B2, “Yeats inhibitors and methods of use thereof” (The University of Hong Kong, priority 2017, dated 2022).
Residues, ends and D or L forms follow the SMILES beside them. *: point of attachment. Oxazole(5-CO) = O=C(c1cnco1)*

Tests used:
[1] = target: T1, AF9 YEATS domain (Homo sapiens, UniProt P42568); assay: Photo-cross-linking-based competition assay (photoaffinity probe, click chemistry, in-gel fluorescence); type: binding; conditions: for IC50: competition with photoaffinity probe, in-gel fluorescence
T1 construct: His-AF9 (1-138); His (N); made in house; host or cells: E. coli Rosetta
T1 sequence (P42568 1-138): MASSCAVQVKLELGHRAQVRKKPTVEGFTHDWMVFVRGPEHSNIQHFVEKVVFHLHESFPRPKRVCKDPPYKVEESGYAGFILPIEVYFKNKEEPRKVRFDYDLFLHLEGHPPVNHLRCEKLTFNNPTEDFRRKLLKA
Description: Mobile phase used were water with 0.1% trifluoroacetic acid (buffer A) and 90% acetonitrile in water with 0.1% trifluoroacetic acid (buffer B). The purity (>95%) and identity of peptides were confirmed by LC-MS. The inhibitory activities of the inhibitors were determined by a photo-cross-linking-based competition assay. […] The reactions were incubated for 1 h at r.t . . . . The reactions were quenched by adding 5 volumes of ice-cold acetone and placed at −20° C. overnight to precipitate proteins. After protein precipitation, samples were centrifuged at 6000×g for 5 min at 4° C. The supernatant was discarded and the pellet was washed with ice-cooled methanol twice and air-dried for 10 min. […] Samples were then resolved by SDS-PAGE. The labeled proteins were visualized by scanning the gel on a Typhoon 9410 variable mode imager (excitation 532 nm, emission filter 580 nm). A photo-cross-linking based method was used in this study to estimate inhibitory activity (FIG. 28). This method requires the use of a photoaffinity probe. The probe (probe 1 (SEQ ID NO:48), see below) is derived from a crotonylated peptide, ligand of the protein, carrying a photo-cross-linker and a terminal alkyne as bioorthogonal. The YEATS domain is incubated and bound to the probe through Kcr-dependent recognition. Upon UV-irradiation, the photo-cross-linker is activated and rapidly cross-linked to the protein, converting the non-covalent protein-probe interaction into a covalent linkage. The probe-labeled protein is subsequently conjugated to an azide-functionalized fluorescence dye (for example, rhodamine-N3, Rho-N3) via Cu(I)-catalyzed azide-alkyne cycloaddition (CuAAC, or “click” chemistry). After SDS-PAGE, the protein can be visualized by in-gel fluorescence scanning. If photo-cross-linking of the YEATS domain with photoaffinity probe is performed in the presence of an inhibitor, which occupies the Kcr binding pocket of the YEATS domain and thus inhibits the protein-probe interaction, the percentage of the YEATS domain in the sample that is labeled by the probe will be reduced. The in-gel fluorescence intensity detected will also be decreased. By varying the concentration of inhibitor added in the sample and quantifying the resulting fluorescence intensities, a competition curve of the inhibitor toward the protein-probe interaction will be obtained, which can be used to estimate the IC50 value. Due to the covalent nature of photo-cross-linking, weak protein-protein interactions can be captured and eventually visualized. The protein concentration used in the assay can be as low as several nanograms per microliter, while the fluorescence signal can still be robustly detected and quantified.

[2] = target: T2, ENL YEATS domain (Homo sapiens, UniProt Q03111); assay: Photo-cross-linking-based competition assay; type: binding; conditions: for IC50: competition with photoaffinity probe, in-gel fluorescence
T2 construct: His-SUMO-ENL (1-138); His (N); SUMO (N); made in house; host or cells: E. coli Rosetta
T2 sequence (Q03111 1-138): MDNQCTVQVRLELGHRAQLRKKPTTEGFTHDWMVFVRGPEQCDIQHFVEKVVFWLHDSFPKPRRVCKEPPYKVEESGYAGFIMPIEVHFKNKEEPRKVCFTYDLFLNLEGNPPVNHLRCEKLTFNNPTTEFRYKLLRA

[3] = target: T3, GAS41 YEATS domain (Homo sapiens, UniProt O95619); assay: Photo-cross-linking-based competition assay; type: binding; conditions: competition with photoaffinity probe, in-gel fluorescence
T3 construct: His-Gas41 (15-159); His (N); made in house; host or cells: E. coli Rosetta
Description: (§1) Peptides were synthesized on a Rink-Amide MBHA resin followed by a standard Fmoc-based solid-phase peptide synthesis protocol. After all amino acids were coupled, protecting groups and cleavage of peptides from the resin were done by incubating the resin with a cleavage cocktail containing 95% trifluoroacetic acid, 2.5% triisopropylsilane, 1.5% H2O and, 1% thioanisole for 2 h. Peptides were purified by preparative HPLC with an XBridge Prep OBDTM C18 column (30 mm×250 mm, 10 μm, Waters). Mobile phase used were water with 0.1% trifluoroacetic acid (buffer A) and 90% acetonitrile in water with 0.1% trifluoroacetic acid (buffer B). The purity (>95%) and identity of peptides were confirmed by LC-MS. The inhibitory activities of the inhibitors were determined by a photo-cross-linking-based competition assay.
(§2) The probe 4.1 or 4.2 (2 μM) with indicated concentrations of different inhibitors was incubated with YEATS domain proteins (5 or 20 ng/μL) in binding buffer (50 mM HEPES, 150 mM NaCl, 2 mM MgCl2, 0.1% Tween-20, 20% glycerol, pH 7.5, with or without 50 ng/μL BSA) for 10 min at 4° C. Then, the samples were irradiated at 365 nm using a UV lamp for 20 min in a 96-well plate on ice.
(§3) To the prepared photo-cross-linking samples, 100 μM Rho-N3 (10 mM stock in DMSO) was added, followed by 1 mM TCEP (freshly prepared 50 mM stock in H2O), 100 μM TBTA (10 mM stock in DMSO), and finally the reactions were initiated by the addition of 1 mM CuSO4 (freshly prepared 50 mM stock in H2O). The reactions were incubated for 1 h at r.t . . . . The reactions were quenched by adding 5 volumes of ice-cold acetone and placed at −20° C. overnight to precipitate proteins.
(§4) After protein precipitation, samples were centrifuged at 6000×g for 5 min at 4° C. The supernatant was discarded and the pellet was washed with ice-cooled methanol twice and air-dried for 10 min. The proteins were resuspended in 1×LDS sample loading buffer (Invitrogen) with 50 mM DTT, and heated at 80° C. for 8 min. Samples were then resolved by SDS-PAGE. The labeled proteins were visualized by scanning the gel on a Typhoon 9410 variable mode imager (excitation 532 nm, emission filter 580 nm).
(§5) A photo-cross-linking based method was used in this study to estimate inhibitory activity (FIG. 28). This method requires the use of a photoaffinity probe. The probe (probe 1 (SEQ ID NO:48), see below) is derived from a crotonylated peptide, ligand of the protein, carrying a photo-cross-linker and a terminal alkyne as bioorthogonal.
(§6) The YEATS domain is incubated and bound to the probe through Kcr-dependent recognition. Upon UV-irradiation, the photo-cross-linker is activated and rapidly cross-linked to the protein, converting the non-covalent protein-probe interaction into a covalent linkage. The probe-labeled protein is subsequently conjugated to an azide-functionalized fluorescence dye (for example, rhodamine-N3, Rho-N3) via Cu(I)-catalyzed azide-alkyne cycloaddition (CuAAC, or “click” chemistry). After SDS-PAGE, the protein can be visualized by in-gel fluorescence scanning. If photo-cross-linking of the YEATS domain with photoaffinity probe is performed in the presence of an inhibitor, which occupies the Kcr binding pocket of the YEATS domain and thus inhibits the protein-probe interaction, the percentage of the YEATS domain in the sample that is labeled by the probe will be reduced. The in-gel fluorescence intensity detected will also be decreased. By varying the concentration of inhibitor added in the sample and quantifying the resulting fluorescence intensities, a competition curve of the inhibitor toward the protein-probe interaction will be obtained, which can be used to estimate the IC50 value. Due to the covalent nature of photo-cross-linking, weak protein-protein interactions can be captured and eventually visualized. The protein concentration used in the assay can be as low as several nanograms per microliter, while the fluorescence signal can still be robustly detected and quantified. […]

[4] = target: T4, YEATS2 domain (Homo sapiens, UniProt Q9ULM3); assay: Photo-cross-linking-based competition assay; type: binding; conditions: competition with photoaffinity probe, in-gel fluorescence
T4 construct: His-SUMO-YEATS2 (201-332); His (N); SUMO (N); made in house; host or cells: E. coli Rosetta
T4 sequence (Q9ULM3 201-332): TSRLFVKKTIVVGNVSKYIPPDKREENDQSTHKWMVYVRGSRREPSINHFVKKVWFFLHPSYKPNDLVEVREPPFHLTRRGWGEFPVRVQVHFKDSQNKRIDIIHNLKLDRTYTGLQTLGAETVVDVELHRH
Description: as §1, §2, §3, §4, §5, §6

[5] = target: T5, ENL (Homo sapiens, UniProt Q03111); assay: Cellular thermal shift assay (CETSA) in MOLM-13 (FLAG-ENL) cells; type: cell-based; conditions: MOLM13 (FLAG-ENL), 50 μM, 16 hours, anti-FLAG
T5 construct: expressed in transfected cells; host or cells: MOLM-13 (FLAG-ENL) cells
T5 sequence (Q03111 1-559): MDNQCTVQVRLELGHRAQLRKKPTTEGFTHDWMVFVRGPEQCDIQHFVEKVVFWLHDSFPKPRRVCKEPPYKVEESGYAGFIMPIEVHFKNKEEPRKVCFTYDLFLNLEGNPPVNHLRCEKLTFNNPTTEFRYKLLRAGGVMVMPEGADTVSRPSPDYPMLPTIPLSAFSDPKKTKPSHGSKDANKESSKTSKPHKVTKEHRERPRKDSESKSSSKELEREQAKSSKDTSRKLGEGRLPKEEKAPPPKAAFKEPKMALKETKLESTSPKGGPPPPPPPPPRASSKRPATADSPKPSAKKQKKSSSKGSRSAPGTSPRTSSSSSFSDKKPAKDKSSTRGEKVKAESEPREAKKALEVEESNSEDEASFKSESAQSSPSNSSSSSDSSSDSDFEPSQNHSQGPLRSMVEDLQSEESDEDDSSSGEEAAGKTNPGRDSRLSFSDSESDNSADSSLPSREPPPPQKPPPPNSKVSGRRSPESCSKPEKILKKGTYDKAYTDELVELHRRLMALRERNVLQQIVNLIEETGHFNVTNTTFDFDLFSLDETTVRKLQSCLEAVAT
Description: We next applied the cellular thermal shift assay (CETSA) to examine if XL-13m was cell permeable and could target ENL in living cells. MOLM-13 (FLAG-ENL) were treated with XL-13m for […] and then heated at different temperature to denature and precipitate proteins. […] Soluble proteins were extracted by freeze-thaw cycle and subjected to western blotting analysis.
MOLM13 (FLAG-ENL) cells were incubated with or without 50 μM compound for 16 hours and then were collected for cellular thermal shift assay (CETSA) as previously reported. Anti-FLAG antibody was used to detect ENL proteins and γ-actin blotting served as negative control.

[6] = target: T1, AF9 YEATS domain; assay: Isothermal titration calorimetry (ITC); type: binding; conditions: ITC
Description: (§7) ^1H and ^13C NMR spectra were recorded on Bruker UltraShield 400 or 600 MHz spectrometers and were calibrated using residual undeuterated solvent as an internal reference. Chemical shifts were reported in ppm, and coupling constant J was reported in Hz. Peptides were analyzed by LC-MS with an Agilent 1260 Infinity HPLC system connected to a Thermo Finnigan LCQ DecaXP MS detector. Peptides were purified on a preparative HPLC system with Waters 2535 Quaternary Gradient Module, Waters 515 HPLC pump, Waters SFO System Fluidics Organizer, and Waters 2767 Sample Manager. Photo-cross-linking was performed with an ENF-260C/FE hand-hang UV lamp (Spectroline). In-gel fluorescence scanning was performed using a Typhoon 9410 variable mode imager from GE Healthcare Life Sciences (excitation 532 nm, emission 580 nm). Images of Coomassie blue staining were acquired by MyECL Imager from Thermo Scientific. All images were processed by ImageJ software (National Institutes of Health), and contrast was adjusted appropriately. ITC experiments were performed with a MicroCal iTC200 titration calorimeter (MicroCal). IC50 and dissociation constants were fit with Origin 7.0 software package (OriginLab).
To further validate the reliability of the results obtained from the photo-cross-linking-based competition assay, we performed isothermal titration calorimetry (ITC) to determine the direct binding affinities of the inhibitors toward the AF9 YEATS domain. […] The ITC measurements were in agreement with the IC50 data, indicating the reliability of the results obtained from the photo-cross-linking-based competition assay.

[7] = target: T2, ENL YEATS domain; assay: Isothermal titration calorimetry (ITC); type: binding
Description: as §7
The compound Cyclic 3 was also tested with AF9 and ENL YEATS domains.

T3 sequence (O95619 15-159): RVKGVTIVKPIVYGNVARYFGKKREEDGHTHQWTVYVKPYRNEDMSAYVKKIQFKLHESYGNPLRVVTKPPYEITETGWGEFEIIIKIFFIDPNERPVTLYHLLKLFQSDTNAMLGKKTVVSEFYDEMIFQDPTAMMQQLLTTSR

IC50 [1] [µM]	IC50 [2] [µM]	activity drop on ENL compared to AF9 ([2]; ratio of IC50 values) [fold]	IC50 [3] [µM]	IC50 [4] [µM]	Kd [6] [µM]	Kd [7] [µM]	SMILES	activity on AF9 weaker than on ENL ([1]; ratio of IC50 values) [fold]	thermal shift: targeting of ENL protein in living cells [5]
0.26	1.3	5	123	42.4			C[C@H](NC(=O)[C@@H](NC(=O)[C@H](CCC(N)=O)NC(=O)OCc1ccccc1)[C@@H](C)O)C(=O)N[C@@H](CCCNC(=N)N)C(=O)N[C@@H](CCCCNC(=O)c1ccco1)C(N)=O [Compound 26]		
0.24			14.5	98.7			C[C@H](NC(=O)[C@@H](NC(=O)[C@H](CCC(N)=O)NC(=O)OCc1ccccc1)[C@@H](C)O)C(=O)N[C@@H](CCCNC(=N)N)C(=O)N[C@@H](CCCCNC(=O)c1cnco1)C(N)=O [Compound 27]		
							CC(=O)N[C@@H](C)C(=O)N[C@@H](C)C(=O)N[C@@H](CCCNC(=N)N)C(=O)N[C@@H](CCCCNC(=O)c1cnco1)C(N)=O [Compound 40] (Ac-AARK(Oxazole(5-CO))-NH2)	6.1	revealed the target of ENL protein
	12.9		53.7	22.7	0.52	11.4	C[C@@H]1NC(=O)[C@H]([C@H](C)O)NC(=O)[C@@H](NC(=O)OCc2ccccc2)CCCCNC(=N)NCCC[C@H](C(=O)N[C@@H](CCCCNC(=O)c2cnco2)C(N)=O)NC1=O [Compound 80]		
